# Test results reported in patent US5424303A, “Substituted aminophosphonate derivatives, process for their preparation and pharmaceutical compositions containing them” (Symphar SA, priority 1992, dated 1995).
# pIC50: −log10 of the molar value.
# What was measured:
# plasma cholesterol = assay: Hypocholesterolemic activity, plasma cholesterol in mice fed test compound in diet; type: in vivo, OF1 strain mice; conditions: for plasma cholesterol values as compared to control: same experimental conditions, reference drugs; for change in vivo at 180 mg/kg/day: Mus musculus, feed or water, 240 h, read-out: Plasma Cholesterol (% Control), 0.1% compound in food, 10 days, ca. 180 mg/kg daily, mouse; for decrease plasma cholesterol by: 0.1% in food
# Description: A. Hypocholesterolemic activity
# Mouse fed a normal diet is a convenient model which was proposed by several authors (P. Olivier et al, Atherosclerosis 70, 107-114, 1988) ,for the screening for hypocholesterolemic drugs. OF1 strain mice (Iffa Credo) weighing between 25 and 35 g were divided into 5 groups of 5 animals each, four groups received the test compounds and the fifth group served as control. The test compounds were dissolved in diethyl ether. The ether solution was added to food to obtain a final concentration of 0.1%. compound in food. Ether was then evaporated at room temperature. The animals were fed for 10 days, the dally food intake corresponds to ca. 180 mg/kg. After an overnight fast, they were sacrificed by decapitation under ether anesthesia. Blood samples were collected using EDTA as anticoagulant.
# Plasma cholesterol was measured by an enzymatic test (DIAMED, Morat, Switzerland). The mean values of each group receiving the test or reference compounds were expressed as percent of mean value of the contemporary control.
# [1] = test system: lipid peroxidation (rat liver homogenate); assay: Antioxidant activity, inhibition of iron induced lipid peroxidation in liver homogenate; type: biochemical, Wistar rat; conditions: FeSO4, 37° C., 2 h; <25 μM where IC50 was not determined
# Description: The liver of a Wistar rat anesthetized with ether was collected and homogenized in 4 volumes of phosphate buffer (+4° C., pH 7.4) by means of a Potter. After centrifugation at 2000 rpm for 10 min the supernatant obtained was kept at +4° C. Lipid peroxidation was carried out in presence of FeSOhd according to the method described by A. T. Quitaniha et at, Ann.
# The mixture contained 1.7 ml phosphate buffer, 0.2 ml homogenate and 0.1 ml of a 2 mM FeSO4 solution. The test compounds were added in a volume of 61 μl of ethanol or DMSO. Oxydation was carried out at 37° C. for 2 h and was stopped by the addition of 20 μl of 2% ethanolic solution of BHT.
Compound,pIC50 [1],change in vivo at 180 mg/kg/day (plasma cholesterol),also measured
"Cc1cc(C(C)(C)C)c(O)c(C(C)(C)C)c1 [BHT, 2,6-di-tert-butyl-4-methylphenol, reference compound]",5.30,,hypocholesterolemic activity (in words) (plasma cholesterol; this model (mouse)): no hypocholesterolemic activity
"CCOC(=O)C(C)(C)Oc1ccc(Cl)cc1 [Clofibrate, reference compound]",,,plasma cholesterol values as compared to control (plasma cholesterol; mouse): +4%
CCOP(=O)(OCC)C(NC(C)(C)C)c1cc(C(C)(C)C)c(O)c(C(C)(C)C)c1 (centres unmarked) [Compound 1],< 4.60,8%,
CCCCCNC(c1cc(C(C)(C)C)c(O)c(C(C)(C)C)c1)P(=O)(OCC)OCC (centres unmarked) [Compound 2],5.60,-8%,
CCOP(=O)(OCC)C(Nc1ccccc1)c1cc(C(C)(C)C)c(O)c(C(C)(C)C)c1 (centres unmarked) [Compound 3],5.29,-30%,"decrease plasma cholesterol by (plasma cholesterol; mouse, 10 days): more than 30%"
CCOP(=O)(OCC)C(Nc1ccc(O)cc1)c1cc(C(C)(C)C)c(O)c(C(C)(C)C)c1 (centres unmarked) [Compound 4],5.39,-15%,
CCOP(=O)(OCC)C(Nc1ccc(O)c(C)c1)c1cc(C(C)(C)C)c(O)c(C(C)(C)C)c1 (centres unmarked) [Compound 5],5.89,2%,
CCOP(=O)(OCC)C(Nc1ccc(Cl)cc1)c1cc(C(C)(C)C)c(O)c(C(C)(C)C)c1 (centres unmarked) [Compound 6],> 4.60,-17%,
"CCOP(=O)(OCC)C(Nc1ccc(OC)cc1)c1cc(C(C)(C)C)c(O)c(C(C)(C)C)c1 (stereo not drawn) [Compound 7, Diethyl α-(3,5-di-tert-butyl-4-hydroxyphenyl)-N-(4-methoxyphenyl)-aminomethylphosphonate]",> 4.60,-47%,"decrease plasma cholesterol by (plasma cholesterol; mouse, 10 days): more than 30%"
CCOP(=O)(OCC)C(Nc1cccc(C)c1)c1cc(C(C)(C)C)c(O)c(C(C)(C)C)c1 (centres unmarked) [Compound 8],> 4.60,,
CCOc1ccc(NC(c2cc(C(C)(C)C)c(O)c(C(C)(C)C)c2)P(=O)(OCC)OCC)cc1 (centres unmarked) [Compound 9],> 4.60,-31%,"decrease plasma cholesterol by (plasma cholesterol; mouse, 10 days): more than 30%"
CCCCCc1ccc(NC(c2cc(C(C)(C)C)c(O)c(C(C)(C)C)c2)P(=O)(OCC)OCC)cc1 (centres unmarked) [Compound 10],5.54,11%,
CCOP(=O)(OCC)C(Nc1ccc(N2C(=O)c3ccc(Cl)cc3C2=O)c(C)c1)c1cc(C(C)(C)C)c(O)c(C(C)(C)C)c1 (centres unmarked) [Compound 11],5.57,,
CCOP(=O)(OCC)C(NCc1ccccc1)c1cc(C(C)(C)C)c(O)c(C(C)(C)C)c1 (centres unmarked) [Compound 12],6.15,-23%,
CCOP(=O)(OCC)C(NCCc1ccccc1)c1cc(C(C)(C)C)c(O)c(C(C)(C)C)c1 (centres unmarked) [Compound 13],5.31,-28%,
CCOP(=O)(OCC)C(NCCc1ccc(C)cc1)c1cc(C(C)(C)C)c(O)c(C(C)(C)C)c1 (centres unmarked) [Compound 14],> 4.60,-6%,
CCOP(=O)(OCC)C(NCCc1ccc(O)cc1)c1cc(C(C)(C)C)c(O)c(C(C)(C)C)c1 (centres unmarked) [Compound 15],> 4.60,-18%,
COP(=O)(OC)C(NCCc1ccc(Cl)cc1)c1cc(C(C)(C)C)c(O)c(C(C)(C)C)c1 (centres unmarked) [Compound 16],5.31,-28%,
"CCOP(=O)(OCC)C(NCCc1ccc(Cl)cc1)c1cc(C(C)(C)C)c(O)c(C(C)(C)C)c1 (stereo not drawn) [Compound 17, Diethyl α-(3,5-di-tert-butyl-4-hydroxyphenyl)-N-[2-(4-chlorophenyl)ethyl]-aminomethylphosphonate]",5.28,-43%,"decrease plasma cholesterol by (plasma cholesterol; mouse, 10 days): more than 30%"
CCCOP(=O)(OCCC)C(NCCc1ccc(Cl)cc1)c1cc(C(C)(C)C)c(O)c(C(C)(C)C)c1 (centres unmarked) [Compound 18],5.54,-23%,
CC(C)OP(=O)(OC(C)C)C(NCCc1ccc(Cl)cc1)c1cc(C(C)(C)C)c(O)c(C(C)(C)C)c1 (centres unmarked) [Compound 19],5.52,-33%,"decrease plasma cholesterol by (plasma cholesterol; mouse, 10 days): more than 30%"
CCCCOP(=O)(OCCCC)C(NCCc1ccc(Cl)cc1)c1cc(C(C)(C)C)c(O)c(C(C)(C)C)c1 (centres unmarked) [Compound 20],5.47,-9%,
COP(=O)(OC)C(NCCCc1ccccc1)c1cc(C(C)(C)C)c(O)c(C(C)(C)C)c1 (centres unmarked) [Compound 21],> 4.60,-33%,"decrease plasma cholesterol by (plasma cholesterol; mouse, 10 days): more than 30%"

Compound,pIC50 [1],change in vivo at 180 mg/kg/day (plasma cholesterol),also measured
"CCOP(=O)(OCC)C(NCCCc1ccccc1)c1cc(C(C)(C)C)c(O)c(C(C)(C)C)c1 (stereo not drawn) [Compound 22, Diethyl α-(3,5-di-tert-butyl-4-hydroxyphenyl)-N-(3-phenytpropyl)aminomethylphosphonate]",5.40,,"Plasma Cholesterol (% Control) (plasma cholesterol; 0.1% compound in food, 10 days, ca. 180 mg/kg daily, mouse): -53 % Control; decrease plasma cholesterol by (plasma cholesterol; mouse, 10 days): more than 30%"
CCCOP(=O)(OCCC)C(NCCCc1ccccc1)c1cc(C(C)(C)C)c(O)c(C(C)(C)C)c1 (centres unmarked) [Compound 23],> 4.60,-4%,
CCOP(=O)(OCC)C(NCCN1CCCCC1)c1cc(C(C)(C)C)c(O)c(C(C)(C)C)c1 (centres unmarked) [Compound 34],,-5%,
"CCOP(=O)(OCC)C(NCc1cc(C(C)(C)C)c(O)c(C(C)(C)C)c1)c1cc(C(C)(C)C)c(O)c(C(C)(C)C)c1 (stereo not drawn) [Compound 40, Diethyl α-(3,5-di-tert-butyl-4-hydroxyphenyl)-N-(3,5-di-tert-butyl-4-hydroxybenzyl)-aminomethylphosphonate]",,-25%,
CCOP(=O)(OCC)C(c1cc(C(C)(C)C)c(O)c(C(C)(C)C)c1)N(Cc1ccccc1)C(C)=O (centres unmarked) [Compound 51],> 4.60,,
CCOP(=O)(OCC)C(c1cc(C(C)(C)C)c(O)c(C(C)(C)C)c1)N(Cc1ccccc1)C(=O)C(F)(F)F (centres unmarked) [Compound 52],> 4.60,,
CCOP(=O)(OCC)C(c1cc(C(C)(C)C)c(O)c(C(C)(C)C)c1)N(CCc1ccccc1)C(C)=O (centres unmarked) [Compound 53],> 4.60,,
CCOP(=O)(OCC)C(c1cc(C(C)(C)C)c(O)c(C(C)(C)C)c1)N(CCc1ccccc1)C(=O)C(F)(F)F (centres unmarked) [Compound 54],> 4.60,,
CCCCOP(=O)(OCCCC)C(c1cc(C(C)(C)C)c(O)c(C(C)(C)C)c1)N(CCc1ccc(Cl)cc1)C(=O)C(F)(F)F (centres unmarked) [Compound 55],< 4.60,,
CCOP(=O)(OCC)C(c1cc(C(C)(C)C)c(O)c(C(C)(C)C)c1)N(C(=O)C(F)(F)F)C(Cc1ccccc1)c1ccccc1 (centres unmarked) [Compound 56],> 4.60,,
CCOP(=O)(OCC)C(c1cc(C(C)(C)C)c(O)c(C(C)(C)C)c1)N(CCOc1ccccc1)C(=O)C(F)(F)F (centres unmarked) [Compound 57],> 4.60,,
CCCCCc1ccc(N(C(=O)C(F)(F)F)C(c2cc(C(C)(C)C)c(O)c(C(C)(C)C)c2)P(=O)(OCC)OCC)cc1 (centres unmarked) [Compound 58],> 4.60,,
"CCOP(=O)(OCC)C(c1cc(C(C)(C)C)c(O)c(C(C)(C)C)c1)N(CCCc1ccccc1)C(=O)C(F)(F)F (stereo not drawn) [Compound 64, Diethyl α-(3,5-di-tert-butyl-4-hydroxyphenyl)-N-trifluoroacetyl-N-(3-phenylpropyl)-aminomethylphosphonate]",> 4.60,,
CCOP(=O)(OCC)C(c1cc(C(C)(C)C)c(O)c(C(C)(C)C)c1)N(CCCCc1ccccc1)C(=O)C(F)(F)F (centres unmarked) [Compound 66],> 4.60,,
CCCCOc1ccc(C(NCCc2ccccc2)P(=O)(OCC)OCC)cc1 (centres unmarked) [Compound 69],,2%,
"CCOP(=O)(OCC)C(N)c1cc(C(C)(C)C)c(O)c(C(C)(C)C)c1 (stereo not drawn) [Compound 83, Diethyl α-(3,5-di-tert-butyl4-hydroxyphenyl)-aminomethyl-phosphonate]",,4%,
"C=CCNC(c1cc(C(C)(C)C)c(O)c(C(C)(C)C)c1)P(=O)(OCC)OCC (stereo not drawn) [Compound 84, Diethyl α-(3,5-di-tert-butyl-4-hydroxyphenyl)-N-allyl-aminomethylphosphonate]",,-19%,
"CCOP(=O)(OCC)C(NC(=O)OCc1ccccc1)c1cc(C(C)(C)C)c(O)c(C(C)(C)C)c1 (stereo not drawn) [Compound 85, Diethyl α-(3,5-di-tert-butyl-4-hydroxyphenyl)-N-benzyloxycarbonyl-aminomethylphosphonate]",,0%,
CCOP(=O)(OCC)C(NCc1ccncc1)c1cc(C(C)(C)C)c(O)c(C(C)(C)C)c1 (centres unmarked) [Compound 86],,-15%,
CCOP(=O)(OCC)C(NC1COC(C)(C)OC1c1ccccc1)c1cc(C(C)(C)C)c(O)c(C(C)(C)C)c1 (centres unmarked) [Compound 91],,-18%,
"CC(C)OC(=O)C(C)(C)Oc1ccc(C(=O)c2ccc(Cl)cc2)cc1 [Fenofibrate, reference compound]",,,plasma cholesterol values as compared to control (plasma cholesterol; mouse): -26%
"Cc1ccc(C)c(OCCCC(C)(C)C(=O)O)c1 [Gemfibrozil, reference compound]",,,plasma cholesterol values as compared to control (plasma cholesterol; mouse): -7%
